“And” between values parts separate entries of the source, which are not always exact repeats. Equal entries are not always repeated.
Columns and labels:
Assay type in all cases: physicochemical
[1] = Maximum absorption wavelength (λmax) after color development, spectrophotometer MCPD3000; conditions: photochromic laminate by coating method, 40 µm photochromic layer on thiourethane lens, 0.25 mmol compound per 100 g monomers
Method in brief: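 Read-out: absorbance at λmax, multichannel photodetector spectrophotometer. Colour density = ε(240) − ε(0), 240 s light, 23°C. τ1/2 = time for ε(240) − ε(0) to halve after light off. Residual rate compares density before and after 90 h xenon weathering.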

[2] = 23°C color fading half-life τ1/2 after 240 s light irradiation
Description: • [1] Maximum Absorption Wavelength (λmax): The maximum absorption wavelength after color development, measured using a spectrophotometer (instantaneous multichannel photodetector MCPD3000) manufactured by Otsuka Electronics Co., Ltd. was used as an indicator for the color tone during the color development. • [2] 23°C Color Optical Density (A23): A difference between an absorbancy measured after light irradiation at 23°C for 240 seconds {ε(240)} and an absorbancy without light irradiation ε(0) at the maximum absorption wavelength was used as an indicator for the color optical density. […] 35°C Color Optical Density (A35): A difference between an absorbancy measured after light irradiation at 35°C for 240 seconds {ε(240)} and an absorbancy without light irradiation ε(0) at the first and second absorption wavelengths was used as an indicator for the color optical density. […] 23°C color fading half-life [τ1/2 (sec.)]: A time required for the absorbancy of the sample at the maximum absorption wavelength to decrease to 1/2 of {ε(240)-ε(0)} when the light irradiation is terminated after the light irradiation at 23°C for 240 seconds, was used as an indicator for the color fading speed. The shorter this time, the higher the color fading speed. • [6] Residual rate (A90/A0×100): The obtained photochromic plastic lens was subjected to accelerated deterioration using a xenon weather meter X25 manufactured by Suga Test Instruments Co., Ltd. for 90 hours. Subsequently, the color optical density was evaluated before and after the test, then a color optical density before the test (A0) and a color optical density after the test (A90) were measured, and a ratio (A90/A0) was defined as a residual rate. The residual rate was used as an indicator for a color developing durability. The higher the residual rate, the higher the color developing durability.

[3] = High-temperature color development rate (A35/A23×100), temperature dependency; conditions: photochromic laminate by coating method
Method in brief: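 The sample was irradiated with light for 240 seconds at 23°C and separately at 35°C. The gain in absorbance over the unirradiated state, ε(240)−ε(0), gave the color optical densities A23 and A35. A35 divided by A23, multiplied by 100, expressed how well color development holds up at the higher temperature.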

[4] = 35°C color optical density (A35): absorbancy difference ε(240)-ε(0) after 240 s light irradiation at 35°C; conditions: photochromic laminate by coating method, 240 s irradiation
Method in brief: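 Color optical density at 35°C (A35) came from light exposure of the sample at 35°C lasting 240 seconds. At the first and second absorption wavelengths, the absorbancy before irradiation, ε(0), was subtracted from the absorbancy measured after irradiation, ε(240). This difference was taken as the measure of color optical density.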

[5] = Residual rate (A90/A0×100) after 90 h accelerated deterioration in xenon weather meter X25, color developing durability; conditions: photochromic laminate by coating method; xenon weather meter 90 hours
Method in brief: (§1)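 Absorbance differences between the dark and 240 s-irradiated states, measured at 23°C, served as the density metric. The same signal was followed after irradiation to obtain the half-decay time. Lenses then underwent 90 h of accelerated xenon deterioration.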

[6] = 23°C color optical density (A23): absorbancy difference ε(240)-ε(0) after 240 s light irradiation at 23°C; conditions: photochromic laminate by coating method, 240 s irradiation, at the maximum absorption wavelength
Method in brief: as §1

Row | Structure (SMILES) | Maximum absorption wavelength (nm) ([1]; at 462 nm absorption maximum) | Maximum absorption wavelength (nm) ([1]; at 576 nm absorption maximum) | 23°C color fading half-life [2] | A35/A23 *100 (%) [3] | A35 (-) ([4]; at 462 nm absorption maximum) | A35 (-) ([4]; at 576 nm absorption maximum) | Residual rate (%) [5] | A23 (-) ([6]; at 462 nm absorption maximum) | A23 (-) ([6]; at 576 nm absorption maximum) | Maximum absorption wavelength (nm) [1] | A35 (-) [4] | A23 (-) [6]
1 | CCCOc1ccc(C2(c3ccc(OC)cc3)C=Cc3c4c(c5cc(N(c6ccc(C(F)(F)F)cc6)c6ccc(C(F)(F)F)cc6)c(OC)cc5c3O2)-c2ccccc2C4(CCCCOC)CCCCOC)cc1 (stereo not drawn) [Example 11 Formula (63)] | 462 nm | 576 nm | 0.667 min | 61% | 0.46 - | 0.41 - | 83% | 0.75 - | 0.66 - |  |  | 
2 | CCCCN(c1ccc(F)cc1)c1cc2c3c(c4c(c2cc1OC)OC(c1ccc(OC)cc1)(c1ccc(OC)cc1)C=C4)C(CCCCOC)(CCCCOC)c1ccccc1-3 [Example 16 Formula (77)] |  |  | 1.2 min | 67% |  |  | 80% |  |  | 498 nm | 0.84 - | 1.25 -
3 | CCCC1(CCC)c2cc(C)ccc2-c2c1c1c(c3cc(OC)c(N(C)c4ccccc4)cc23)OC(c2ccc(OC)cc2)(c2ccc(OC)cc2)C=C1 [Example 18 Formula (81)] |  |  | 1.63 min | 70% |  |  | 78% |  |  | 493 nm | 0.88 - | 1.25 -
4 | CCCC1(CCC)c2ccccc2-c2c1c1c(c3cc(OC)c(N(C)c4ccccc4)cc23)OC(c2ccc(OC)cc2)(c2ccc(N(c3ccccc3)c3ccccc3)cc2)C=C1 (stereo not drawn) [Example 21 Formula (87)] |  |  | 1.62 min | 69% |  |  | 80% |  |  | 524 nm | 0.87 - | 1.26 -
5 | CCCC1(CCC)c2ccccc2-c2c1c1c(c3cc(OC)c(N(c4ccccc4)c4ccccc4)cc23)OC(c2ccc(C)cc2)(c2ccc(N(C)c3ccccc3)cc2)C=C1 (stereo not drawn) [Example 22 Formula (89)] |  |  | 1.25 min | 68% |  |  | 76% |  |  | 530 nm | 1.03 - | 1.51 -
6 | CCCCN(c1ccccc1)c1cc2c3c(c4c(c2cc1OC)OC(c1ccc(OC)cc1)(c1ccc(OCCC)cc1)C=C4)C(CC)(CC)c1cc(OC(F)(F)F)ccc1-3 (stereo not drawn) [Example 51 Formula (117)] |  |  | 0.633 min | 62% |  |  | 75% |  |  | 501 nm | 0.61 - | 0.98 -
7 | CCCCN(c1ccc(C(F)(F)F)cc1)c1cc2c3c(c4c(c2cc1OC)OC(c1ccc(C)cc1)(c1ccc(OC)cc1)C=C4)C1(CCCCCCCCCCC1)c1cc(OC)ccc1-3 (stereo not drawn) [Example 54 Formula (123)] |  |  | 2.92 min | 74% |  |  | 78% |  |  | 453 nm and 583 nm | 0.60 - and 0.80 - | 0.82 - and 1.08 -
8 | COCCCC1(CCCOC)c2cc(Sc3c(C)cccc3C)ccc2-c2c1c1c(c3cc(OC)c(N(CCOC)c4ccc(C(F)(F)F)cc4)cc23)OC(c2ccc(OC)cc2)(c2ccc(OC)cc2)C=C1 [Example 57 Formula (132)] |  |  | 0.783 min | 67% and 68% |  |  | 77% |  |  | 468 nm and 597 nm | 0.44 - and 0.48 - | 0.66 - and 0.71 -
